# Reference: patent US20260007613A1, “LONG-ACTING LOW-TOXICITY NOVEL CATIONIC LIPID COMPOUNDS AND COMPOSITION THEREOF” (BEIJING YOUCAREKECHUANG PHARMACEUTICAL TECHNOLOGY CO., LTD., priority 2023, published 2026)
# “And” between values parts separate entries of the source, which are not always exact repeats. Equal entries are not always repeated.
# Key:
# [1] = Particle size and polydispersity index (PDI) of lipid nanoparticles by dynamic light scattering; assay type: physicochemical; conditions: LNP formulation prepared from the cationic lipid, 25° C.
# Protocol: The particle size and polydispersity index (PDI) were determined by dynamic light scattering using Malvern laser particle size analyzer.
# 10 μL of the liposome solution was weighed, diluted to 1 mL with RNase-free deionized water, and added to the sample pool. Each sample was measured in triplicate. The measurement conditions were: […] scattering angle, and 25° C.
# [2] = system: 293T cells; test: Cell survival rate determination (CCK-8); assay type: cell-based; conditions: for Cell survival rate (%): LNP formulation of Fluc-mRNA, 24 hours, CCK-8
# Protocol: (§1) Cell recovery and passage: 293T cells were recovered, cultured in a culture dish, and passaged to the required number of cells.
# (§2) Seeding plate: The cells in the culture dish were digested and counted. Cells were spread in a 96-well plate at 10,000 cells per well and in a 12-well plate at 150,000 cells per well. Cells were cultured overnight until the cells adhered to the wall.
# (§3) Cell recovery and passage: the method was the same as in Example 3.
# (§4) Seeding plate: the method was the same as in Example 3.
# An LNP formulation containing […] of Fluc-mRNA (the carrier components of the LNP formulation were cationic lipid, neutral lipid, structured lipid and polymer-conjugated lipid with a molar ratio of 49:10:39.5:1.5, wherein the cationic lipid was listed in Table 1) and the formulation of Lipofectamine 3000 were added to the cell culture medium of a 96-well plate, and further cultivated for 24 hours. 10 μL of CCK-8 solution was then added to each well, and the culture plate was incubated in an incubator for 1 hour. The absorbance at 450 nm was measured by a microplate reader.
# Cell survival rate can represent the toxicity of cationic lipids to cells. The higher the cell survival rate, the lower the toxicity to cells.
# [3] = system: female BALB/C mice; test: Live imaging in mice: protein expression of Fluc-mRNA delivered by LNP formulations; assay type: in vivo; conditions: for average radiation intensity, times that of ALC-0315: comparator ALC-0315; for average radiation intensity, times that of HHMA: comparator HHMA; for average radiation intensity, times that of SM-102: comparator SM-102; for expression of mRNA in mice, times that of YK-302: comparator YK-302; for expression amount, times that of YK-321: comparator YK-321; for average radiation intensity, times that of compound 21: comparator compound 21; for average radiation intensity, times that of compound 23: comparator compound 23
# Protocol: In addition, the protein expression and duration of mRNA in mice delivered by the cationic lipid delivery carriers designed were also verified.
# The LNP formulation containing […] Fluc-mRNA was injected intramuscularly into female BALB/C mice aged 4 to 6 weeks old and weighed 17 to 19 g, and the mice were intraperitoneally injected with fluorescent imaging substrate at specific time points after administration (6 h, 24 h, 48 h and 7 d), where the mice were free to move for 5 minutes, and then the average radiation intensity (corresponding to fluorescence expression intensity) of the protein expression of the mRNA carried by the LNP in the mice was detected by the IVIS Spectrum small animal live imaging device.
# [4] = system: 293T cells; test: Fluorescent detection of Fluc-mRNA (cell transfection efficiency of LNP formulations); assay type: cell-based; conditions: for Relative light unit (RLU): LNP formulation of Fluc-mRNA, 96-well plate, 24 hours; for Multiples (YK-305): RLU of YK-305 / RLU of the lipid of the line; for Multiples (YK-310): RLU of YK-310 / RLU of the lipid of the line; for Multiples (YK-312): RLU of YK-312 / RLU of the lipid of the line; for Ratio relative to SM-102: RLU of the lipid / RLU of SM-102, times that of SM-102; for Multiples (YK-318): RLU of YK-318 / RLU of the lipid of the line; for Multiples (YK-318) / Multiples (YK-319): Tables 5, 7, 11; for Multiples (YK-319): RLU of YK-319 / RLU of the lipid of the line
# Protocol: as §1, §2, §3, §4
# An LNP formulation containing […] of Fluc-mRNA (the carrier components of the LNP formulation were cationic lipid, neutral lipid, structured lipid and polymer-conjugated lipid with a molar ratio of 49:10:39.5:1.5, wherein the cationic lipid was listed in Table 1) was added to the cell culture medium of a 96-well plate, and further incubated for 24 hours. The corresponding reagent was added according to the instructions of the […] Luciferase Assay Kit, and the fluorescence expression intensity of each well was detected by an IVIS fluorescence detection system. This test verified the transfection efficiencies of LNP formulations in cells, see Tables 4-7 for specific test results.
# [5] = 6 h after intramuscular injection
# [6] = 24 h after intramuscular injection
# [7] = 48 h after intramuscular injection
# [8] = 7 d after intramuscular injection
compound,measurement,setting,value
"CCCCCCCCCCOC(=O)CCCN(CCCCCC(=O)OCCC(CCCCCC)CCCCCC)C[C@H](O)CN(CC)CCO [YK-309, (S)-3-hexylnonyl-6-(4-(decyloxy)-4-oxobutyl)(2-hydroxy-3-(((2-hydroxyethyl)(ethyl)amino)propyl)amino)hexanoate]",PDI (%),[1],27.6%
same,Particle size (nm),[1],232 nm
same,Cell survival rate (%),[2],31.61%
same,average radiation intensity,[3]; [5],65680
same,average radiation intensity,[3]; [6],16820
same,average radiation intensity,[3]; [7],6551
same,average radiation intensity,[3]; [8],1256
same,Relative light unit (RLU),[4],125370 RLU
same,Multiples (YK-305),[4],218.62
same,Multiples (YK-310),[4],205.77
same,Multiples (YK-312),[4],160.71
same,Ratio relative to SM-102,[4],0.08
"CCCCCCCCC(CCCCCCCC)OC(=O)CCCCCN(CCCCCC(=O)OC(CCCCCCCC)CCCCCCCC)C[C@H](O)CN(CCO)CCO [YK-318, (S)-bis(heptadecan-9-yl)-6,6′-((3-(bis(2-hydroxyethyl)amino)-2-hydroxypropyl)azanediyl)dihexanoate]",PDI (%),[1],14.8%
same,Particle size (nm),[1],173 nm
same,Cell survival rate (%),[2],75.56%
same,cell survival rate higher than ALC-0315,"[2]; difference of survival rates, comparator ALC-0315",24.53%
same,cell survival rate higher than HHMA,"[2]; difference of survival rates, comparator HHMA",9.09%
same,cell survival rate higher than Lipofectamine 3000,"[2]; difference of survival rates, comparator Lipofectamine 3000",50.55%
same,cell survival rate higher than SM-102,"[2]; difference of survival rates, comparator SM-102",6.11%
same,cell survival rate higher than YK-301,"[2]; difference of survival rates, comparator YK-301",22.60%
same,cell survival rate higher than YK-302,"[2]; difference of survival rates, comparator YK-302",59.13%
same,cell survival rate higher than YK-303,"[2]; difference of survival rates, comparator YK-303",12.24%
same,cell survival rate higher than YK-304,"[2]; difference of survival rates, comparator YK-304",41.40%
same,cell survival rate higher than YK-306,"[2]; difference of survival rates, comparator YK-306",33.37%
same,cell survival rate higher than YK-307,"[2]; difference of survival rates, comparator YK-307",14.42%
same,cell survival rate higher than YK-308,"[2]; difference of survival rates, comparator YK-308",4.57%
same,cell survival rate higher than YK-309,"[2]; difference of survival rates, comparator YK-309",43.95%
same,cell survival rate higher than YK-311,"[2]; difference of survival rates, comparator YK-311",5.50%
same,cell survival rate higher than YK-313,"[2]; difference of survival rates, comparator YK-313",6.63%
same,cell survival rate higher than YK-314,"[2]; difference of survival rates, comparator YK-314",7.68%
same,cell survival rate higher than YK-315,"[2]; difference of survival rates, comparator YK-315",4.28%
same,cell survival rate higher than YK-316,"[2]; difference of survival rates, comparator YK-316",5.03%
same,cell survival rate higher than YK-317,"[2]; difference of survival rates, comparator YK-317",16.38%
same,cell survival rate higher than YK-320,"[2]; difference of survival rates, comparator YK-320",4.49%
same,cell survival rate higher than YK-321,"[2]; difference of survival rates, comparator YK-321",3.22%
same,cell survival rate higher than compound 21,"[2]; difference of survival rates, comparator compound 21",5.35%
same,cell survival rate higher than compound 23,"[2]; difference of survival rates, comparator compound 23",4.06%
same,"average radiation intensity, times that of ALC-0315",[3]; 6 h,3.85 times
same,"average radiation intensity, times that of HHMA",[3]; 6 h,5.11 times
same,"average radiation intensity, times that of SM-102",[3]; 6 h,4.74 times
same,"expression of mRNA in mice, times that of YK-302",[3]; 6 h,228.10 times
same,"expression amount, times that of YK-321",[3]; 6 h,6.45 times
same,"average radiation intensity, times that of compound 21",[3]; 6 h,5.45 times
same,"average radiation intensity, times that of compound 23",[3]; 6 h,5.64 times
same,average radiation intensity,[3]; [5],3325680
same,"average radiation intensity, times that of ALC-0315",[3]; 24 h,5.08 times
same,"average radiation intensity, times that of HHMA",[3]; 24 h,8.08 times
same,"average radiation intensity, times that of SM-102",[3]; 24 h,8.04 times
same,"expression of mRNA in mice, times that of YK-302",[3]; 24 h,244.83 times
same,"expression amount, times that of YK-321",[3]; 24 h,9.57 times
same,"average radiation intensity, times that of compound 21",[3]; 24 h,8.82 times
same,"average radiation intensity, times that of compound 23",[3]; 24 h,9.27 times
same,average radiation intensity,[3]; [6],968540
same,"average radiation intensity, times that of ALC-0315",[3]; 48 h,8.96 times
same,"average radiation intensity, times that of HHMA",[3]; 48 h,10.96 times
same,"average radiation intensity, times that of SM-102",[3]; 48 h,10.96 times
same,"expression of mRNA in mice, times that of YK-302",[3]; 48 h,348.11 times
same,"expression amount, times that of YK-321",[3]; 48 h,9.76 times
same,"average radiation intensity, times that of compound 21",[3]; 48 h,11.52 times
same,"average radiation intensity, times that of compound 23",[3]; 48 h,10.77 times
same,average radiation intensity,[3]; [7],356810
same,"average radiation intensity, times that of ALC-0315",[3]; 7 d,7.19 times
same,"average radiation intensity, times that of HHMA",[3]; 7 d,8.63 times
same,"average radiation intensity, times that of SM-102",[3]; 7 d,7.65 times
same,"expression of mRNA in mice, times that of YK-302",[3]; 7 d,131.92 times
same,"expression amount, times that of YK-321",[3]; 7 d,7.69 times
same,"average radiation intensity, times that of compound 21",[3]; 7 d,7.86 times
same,"average radiation intensity, times that of compound 23",[3]; 7 d,8.12 times
same,average radiation intensity,[3]; [8],50659
same,Relative light unit (RLU),[4],11190068 RLU
same,Multiples (YK-305),[4],2.45
same,Multiples (YK-310),[4],2.31
same,Multiples (YK-312),[4],1.80
same,Multiples (YK-318),[4],1.00
same,Multiples (YK-319),[4],2.19
same,Ratio relative to SM-102,[4],6.98
same,"cell transfection efficiency, times that of ALC-0315",[4]; comparator ALC-0315,5.50 times
same,"cell transfection efficiency, times that of HHMA",[4]; comparator HHMA,5.58 times
same,"cell transfection efficiency, times that of Lipofectamine 3000",[4]; comparator Lipofectamine 3000,9.44 times
same,"cell transfection efficiency, times that of YK-009",[4]; comparator YK-009,2.19 times
same,"cell transfection efficiency, times that of YK-301",[4]; comparator YK-301,13.28 times
same,"cell transfection efficiency, times that of YK-302",[4]; comparator YK-302,402.84 times
same,"cell transfection efficiency, times that of YK-303",[4]; comparator YK-303,17.87 times
same,"cell transfection efficiency, times that of YK-304",[4]; comparator YK-304,~400 times and 540.95 times
same,"cell transfection efficiency, times that of YK-306",[4]; comparator YK-306,5.09 times
same,"cell transfection efficiency, times that of YK-307",[4]; comparator YK-307,2.46 times
same,"cell transfection efficiency, times that of YK-308",[4]; comparator YK-308,4.86 times
same,"cell transfection efficiency, times that of YK-309",[4]; comparator YK-309,~90 times and 89.26 times
same,"cell transfection efficiency, times that of YK-311",[4]; comparator YK-311,5.70 times
same,"cell transfection efficiency, times that of YK-313",[4]; comparator YK-313,12.91 times
same,"cell transfection efficiency, times that of YK-314",[4]; comparator YK-314,20.44 times
same,"cell transfection efficiency, times that of YK-315",[4]; comparator YK-315,7.05 times
same,"cell transfection efficiency, times that of YK-316",[4]; comparator YK-316,2.33 times
same,"cell transfection efficiency, times that of YK-317",[4]; comparator YK-317,3.10 times
same,"cell transfection efficiency, times that of YK-320",[4]; comparator YK-320,4.14 times
same,"cell transfection efficiency, times that of YK-321",[4]; comparator YK-321,7.97 times
same,"cell transfection efficiency, times that of compound 21",[4]; comparator compound 21,7.81 times
same,"cell transfection efficiency, times that of compound 23",[4]; comparator compound 23,8.25 times
"CCCCCCCCCCC(CCCCCCCCCC)CCCOC(=O)CCCN(CCCC(=O)OCCCC(CCCCCCCCCC)CCCCCCCCCC)C[C@H](O)CN(CCO)CCO [YK-321, (S)-bis(4-decyltetradecyl)-4,4′-((3-(bis(2-hydroxyethyl)amino)-2-hydroxypropyl)azanediyl)dibutyrate]",PDI (%),[1],39.1%
same,Particle size (nm),[1],182 nm
same,Cell survival rate (%),[2],72.34%
same,average radiation intensity,[3]; [5],615600
same,average radiation intensity,[3]; [6],101230
same,average radiation intensity,[3]; [7],36565
same,average radiation intensity,[3]; [8],6586
same,Relative light unit (RLU),[4],1403416 RLU
same,Multiples (YK-305),[4],18.33
same,Multiples (YK-310),[4],18.38
same,Multiples (YK-312),[4],14.36
same,Multiples (YK-318),[4],7.97
same,Multiples (YK-319),[4],17.43
same,Ratio relative to SM-102,[4],0.87
